Measurements from patent publication US10093623B2, “Cyclic amides as MetAP-2 inhibitors” (MERCK PATENT GmbH, priority 2012, dated 2018).
pIC50: −log10 of the molar value.

biological target: MetAP-2 (Homo sapiens, UniProt P50579); assay: MetAP-2 activity measurement (coupled enzymatic reactions, Met-Arg-Ser substrate, dianisidine detection at 450 nm); assay type: biochemical; settings: Inhibition of MetAP-2; read-out: IC50 enzyme
Protocol: MetAP-2 Activity Measurement
The MetAP-2 activity is determined by coupling enzymatic reactions. The tripeptide Met-Arg-Ser (MAS) is employed as substrate. The methionine liberated is firstly converted into Metox and H2O2 by L-aminooxidase (AAO). In the second step, the peroxidase (POD) with the aid of the H2O2 catalyses the oxidation of the leukodye dianisidine to dianisidineox, the increase of which is detected photometrically at 450 nm.
MetAP-2 activity can be recorded continuously as kinetics. The reaction scheme illustrates that one mol of dianisidineox is formed per mol of methionene. The MetAP-2 enzyme activity can therefore be calculated directly as A absorption per time unit. Qualification of the MetAP-2 activity (mol of Met/time unit) is possible with the aid of the dianisidineox extinction coefficient.
The change in extinction per time unit is depicted graphically and a slope calculation is carried out in the visually linear region of the reaction.

Sequence of MetAP-2 (P50579 whole entry, species assumed): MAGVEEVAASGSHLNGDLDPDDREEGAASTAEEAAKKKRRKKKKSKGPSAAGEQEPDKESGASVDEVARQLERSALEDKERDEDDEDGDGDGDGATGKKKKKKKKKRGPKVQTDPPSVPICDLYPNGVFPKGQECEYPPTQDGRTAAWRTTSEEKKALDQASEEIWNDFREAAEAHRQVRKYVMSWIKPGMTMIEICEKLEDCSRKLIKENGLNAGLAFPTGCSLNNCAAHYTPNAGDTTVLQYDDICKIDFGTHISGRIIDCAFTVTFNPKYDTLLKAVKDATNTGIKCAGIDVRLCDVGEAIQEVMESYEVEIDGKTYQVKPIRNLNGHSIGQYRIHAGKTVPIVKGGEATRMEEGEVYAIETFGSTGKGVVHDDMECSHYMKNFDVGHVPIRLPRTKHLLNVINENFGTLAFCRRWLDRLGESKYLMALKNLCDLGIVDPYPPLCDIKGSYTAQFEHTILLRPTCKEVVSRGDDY

Row | SMILES | pIC50
1 | NC(=O)c1cc(C(N)=O)cc(N2CCC(O)(C(=O)NCc3cc(F)cc(Cl)c3)C2=O)c1 (centres unmarked) [A130, 5-[3-(3-Chloro-5-fluorobenzylcarbamoyl)-3-hydroxy-2-oxopyrrolidin-1-yl]-isophthalamide] | 5.00 to 6.00
2 | O=C(NCc1cc(F)cc(Cl)c1)C1(O)CCN([C@@H]2CCNC2)C1=O (stereo partly drawn) [A131, N-(3-Chloro-5-fluorobenzyl)-(R)-3-hydroxy-2-oxo-[1,3′]bipyrrolidinyl-3-carboxamide] | < 5.00
3 | O=C1CCc2cc(N3CCC(O)(C(=O)NCCc4cc(F)cc(Cl)c4)C3=O)ccc2N1 (centres unmarked) [A137, N-[2-(3-Chloro-5-fluorophenyl)-ethyl]-3-hydroxy-2-oxo-1-(2-oxo-1,2,3,4-tetrahydroquinolin-6-yl)-pyrrolidine-3-carboxamide] | 6.00 to 8.00
4 | CC(=O)Nc1ccc(N2CCC(O)(C(=O)NCCc3cc(F)cc(Cl)c3)C2=O)cn1 (centres unmarked) [A139, N-[2-(3-Chloro-5-fluorophenyl)-ethyl]-1-(6-acetylaminopyridin-3-yl)-3-hydroxy-2-oxopyrrolidine-3-carboxamide] | 6.00 to 8.00
5 | Cc1cc(N2CCC(O)(C(=O)NCc3cc(F)cc(Cl)c3)C2=O)cnc1N1CCOCC1=O (centres unmarked) [A142, N-(3-Chloro-5-fluorobenzyl)-3-hydroxy-1-[5-methyl-6-(3-oxo-morpholin-4-yl)-pyridin-3-yl]-2-oxopyrrolidine-3-carboxamide] | 6.00 to 8.00
6 | CC(=O)Nc1ccc(N2CCC(O)(C(=O)NCCc3ccccc3C(F)(F)F)C2=O)cn1 (centres unmarked) [A143, N-[2-(2-Trifluoromethylphenyl)-ethyl]-1-(6-acetylaminopyridin-3-yl)-3-hydroxy-2-oxopyrrolidine-3-carboxamide] | 6.00 to 8.00
7 | NC(=O)c1cccc(N2CCC(O)(C(=O)NCCc3ccccc3C(F)(F)F)C2=O)c1 (centres unmarked) [A144, N-[2-(2-Trifluoromethylphenyl)-ethyl]-1-(3-carbamoylphenyl)-3-hydroxy-2-oxopyrrolidine-3-carboxamide] | 6.00 to 8.00
8 | CC(NC(=O)C1(O)CCN(c2ccccc2)C1=O)c1cccc(F)c1 (centres unmarked) [A145, N-[1-(3-Fluorophenyl)ethyl]-3-hydroxy-2-oxo-1-phenyl-pyrrolidine-3-carboxamide] | 5.00 to 6.00
9 | CCOC(=O)[C@H]1CC[C@H](N2CCC(O)(C(=O)NCc3cc(F)cc(Cl)c3)C2=O)CC1 (some centres unmarked) [A148, Ethyl 4-[3-(3-chloro-5-fluorobenzylcarbamoyl)-3-hydroxy-2-oxopyrrolidin-1-yl]-cyclohexanecarboxylate] | 5.00 to 6.00
10 | O=C1CCc2cc(N3CC[C@](O)(C(=O)NCCc4cc(F)cc(Cl)c4)C3=O)ccc2N1 [A149, N-[2-(3-Chloro-5-fluorophenyl)-ethyl]-(S)-3-hydroxy-2-oxo-1-(2-oxo-1,2,3,4-tetrahydroquinolin-6-yl)pyrrolidine-3-carboxamide] | 6.00 to 8.00
11 | O=C1CCc2cc(N3CC[C@@](O)(C(=O)NCCc4cc(F)cc(Cl)c4)C3=O)ccc2N1 [A150, N-[2-(3-Chloro-5-fluorophenyl)-ethyl]-(R)-3-hydroxy-2-oxo-1-(2-oxo-1,2,3,4-tetrahydroquinolin-6-yl)pyrrolidine-3-carboxamide] | < 5.00
12 | O=C(NCc1cc(F)cc(Cl)c1)C1(O)CCN([C@H]2CC[C@H](C(=O)O)CC2)C1=O (some centres unmarked) [A152, 4-[3-(3-Chloro-5-fluorobenzyl-carbamoyl)-3-hydroxy-2-oxo-pyrrolidin-1-yl]-cyclohexanecarboxylic acid] | 5.00 to 6.00
13 | CC(=O)Nc1ccc(N2CC[C@](O)(C(=O)NCCc3cc(F)cc(Cl)c3)C2=O)cn1 [A155, N-[2-(3-Chloro-5-fluorophenyl)-ethyl]-(S)-1-(6-acetylamino-pyridin-3-yl)-3-hydroxy-2-oxo-pyrrolidine-3-carboxamide] | 6.00 to 8.00
14 | CC(=O)Nc1ccc(N2CC[C@@](O)(C(=O)NCCc3cc(F)cc(Cl)c3)C2=O)cn1 [A156, N-[2-(3-Chloro-5-fluorophenyl)-ethyl]-(R)-1-(6-acetylamino-pyridin-3-yl)-3-hydroxy-2-oxo-pyrrolidine-3-carboxamide] | < 5.00
15 | CNC(=O)[C@H]1CC[C@H](N2CCC(O)(C(=O)NCc3cc(F)cc(Cl)c3)C2=O)CC1 (some centres unmarked) [A157, N-(3-Chloro-5-fluorobenzyl)-3-hydroxy-1-(4-methylcarbamoyl-cyclohexyl)-2-oxopyrrolidine-3-carboxamide] | 5.00 to 6.00
16 | O=C1CCc2cc(NC(=O)C3CCN(c4ccc5c(c4)CCC(=O)N5)C3=O)ccc2N1 (centres unmarked) [A158, N-(2-Oxo-1,2,3,4-tetrahydro-quinolin-6-yl)-2-oxo-1-(2-oxo-1,2,3,4-tetrahydroquinolin-6-yl)-pyrrolidine-3-carboxamide] | < 5.00

More lines, now with the values ahead:

Row | pIC50 | SMILES
17 | 6.00 to 8.00 | CNC(=O)c1cccc(N2CCC(O)(C(=O)NCc3cc(F)cc(Cl)c3)C2=O)c1 (centres unmarked) [A133, N-(3-Chloro-5-fluorobenzyl)-3-hydroxy-1-(3-methylcarbamoyl-phenyl)-2-oxopyrrolidine-3-carboxamide]
18 | 6.00 to 8.00 | CN(C)C(=O)c1cccc(N2CCC(O)(C(=O)NCc3cc(F)cc(Cl)c3)C2=O)c1 (centres unmarked) [A134, N-(3-Chloro-5-fluorobenzyl)-1-(3-Dimethylcarbamoylphenyl)-3-hydroxy-2-oxopyrrolidine-3-carboxamide]
19 | 6.00 to 8.00 | COc1ccc(CN2CCC(O)(C(=O)NCc3cc(F)cc(Cl)c3)C2=O)cc1 (centres unmarked) [A135, N-(3-Chloro-5-fluorobenzyl)-3-hydroxy-1-(4-methoxybenzyl)-2-oxopyrrolidine-3-carboxamide]
20 | 6.00 to 8.00 | O=C(NCc1cc(F)cc(Cl)c1)C1(O)CCN(Cc2ccccc2)C1=O (centres unmarked) [A136, N-(3-Chloro-5-fluorobenzyl)-1-benzyl-3-hydroxy-2-oxo-pyrrolidine-3-carboxamide]
21 | 6.00 to 8.00 | COc1ccc(N2CCC(O)(C(=O)NCc3cc(F)cc(Cl)c3)C2=O)cn1 (centres unmarked) [A138, N-(3-Chloro-5-fluorobenzyl)-3-hydroxy-1-(6-methoxypyridin-3-yl)-2-oxopyrrolidine-3-carboxamide]
22 | 6.00 to 8.00 | O=C(NCc1cc(F)cc(Cl)c1)[C@@]1(O)CCN(Cc2ccccc2)C1=O [A140, N-(3-Chloro-5-fluorobenzyl)-(S)-1-benzyl-3-hydroxy-2-oxo-pyrrolidine-3-carboxamide]
23 | < 5.00 | O=C(NCc1cc(F)cc(Cl)c1)[C@]1(O)CCN(Cc2ccccc2)C1=O [A141, N-(3-Chloro-5-fluorobenzyl)-(R)-1-benzyl-3-hydroxy-2-oxo-pyrrolidine-3-carboxamide]
24 | 6.00 to 8.00 | CNC(=O)c1cc2cc(N3CCC(O)(C(=O)NCc4cc(F)cc(Cl)c4)C3=O)ccc2o1 (centres unmarked) [A146, N-(3-Chloro-5-fluorobenzyl)-3-hydroxy-1-(2-methylcarbamoyl-benzofuran-5-yl)-2-oxo-pyrrolidine-3-carboxamide]
25 | 6.00 to 8.00 | O=C(NCc1cc(F)cc(Cl)c1)C1(O)CCN(c2ccc3[nH]c(=O)ccc3c2)C1=O (centres unmarked) [A147, N-(3-Chloro-5-fluorobenzyl)-3-hydroxy-2-oxo-1-(2-oxo-1,2-dihydroquinolin-6-yl)pyrrolidine-3-carboxamide]
26 | 6.00 to 8.00 | O=C1COc2cc(N3CCC(O)(C(=O)NCc4cc(F)cc(Cl)c4)C3=O)ccc2N1 (centres unmarked) [A151, N-(3-Chloro-5-fluorobenzyl)-3-hydroxy-2-oxo-1-(3-oxo-3,4-dihydro-2H-benzo-1,4-oxazin-7-yl)pyrrolidine-3-carboxamide]
27 | 6.00 to 8.00 | O=C(NCc1cc(F)cc(Cl)c1)[C@@]1(O)CCN(c2ccc3cc[nH]c3c2)C1=O [A153, N-(3-Chloro-5-fluorobenzyl)-(S)-3-hydroxy-1-(1H-indol-6-yl)-2-oxopyrrolidine-3-carboxamide]
28 | < 5.00 | O=C(NCc1cc(F)cc(Cl)c1)[C@]1(O)CCN(c2ccc3cc[nH]c3c2)C1=O [A154, N-(3-Chloro-5-fluorobenzyl)-(R)-3-hydroxy-1-(1H-indol-6-yl)-2-oxopyrrolidine-3-carboxamide]
29 | 5.00 to 6.00 | NC(=O)c1cccc(N2CC[C@@](O)(C(=O)NCCc3cc(F)cc(Cl)c3)C2=O)c1 [A159, N-[2-(3-Chloro-5-fluorophenyl)-ethyl]-(R)-1-(3-carbamoyl-phenyl)-3-hydroxy-2-oxo-pyrrolidine-3-carboxamide]
30 | 6.00 to 8.00 | CNC(=O)c1cccc(N2CC[C@](O)(C(=O)NCc3cc(F)cc(Cl)c3)C2=O)c1 [A161, N-(3-Chloro-5-fluorobenzyl)-(S)-3-hydroxy-1-(3-methyl-carbamoylphenyl)-2-oxo-pyrrolidine-3-carboxamide]
31 | < 5.00 | CNC(=O)c1cccc(N2CC[C@@](O)(C(=O)NCc3cc(F)cc(Cl)c3)C2=O)c1 [A162, N-(3-Chloro-5-fluorobenzyl)-(R)-3-hydroxy-1-(3-methyl-carbamoylphenyl)-2-oxo-pyrrolidine-3-carboxamide]
32 | 6.00 to 8.00 | O=C(NC1CCC1)c1cccc(N2CC[C@](O)(C(=O)NCc3cc(F)cc(Cl)c3)C2=O)c1 [A163, N-(3-Chloro-5-fluorobenzyl)-(S)-1-(3-cyclobutylcarbamoyl-phenyl)-3-hydroxy-2-oxo-pyrrolidine-3-carboxamide]
33 | < 5.00 | O=C(NC1CCC1)c1cccc(N2CC[C@@](O)(C(=O)NCc3cc(F)cc(Cl)c3)C2=O)c1 [A164, N-(3-Chloro-5-fluorobenzyl)-(R)-1-(3-cyclobutylcarbamoyl-phenyl)-3-hydroxy-2-oxo-pyrrolidine-3-carboxamide]
34 | 6.00 to 8.00 | CN(c1cccc(N2CC[C@](O)(C(=O)NCc3cc(F)cc(Cl)c3)C2=O)c1)S(C)(=O)=O [A165, N-(3-Chloro-5-fluorobenzyl)-(S)-3-hydroxy-1-[3-(methane-sulfonylmethylamino)phenyl]-2-oxopyrrolidine-3-carboxamide]
35 | 5.00 to 6.00 | CN(c1cccc(N2CC[C@@](O)(C(=O)NCc3cc(F)cc(Cl)c3)C2=O)c1)S(C)(=O)=O [A166, N-(3-Chloro-5-fluorobenzyl)-(R)-3-hydroxy-1-[3-(methane-sulfonylmethylamino)phenyl]-2-oxopyrrolidine-3-carboxamide]
